This note sets out measurements from patent US8119645B2, “Fungicide hydroximoyl-tetrazole derivatives” (Bayer Cropscience AG, priority 2006, dated 2012).

The nature of the data set: logP by reversed-phase HPLC (EEC Directive 79/831 Annex V.A8). To be noted: HPLC C18, 40° C., 0.1% aqueous formic acid / acetonitrile gradient. The class given is physicochemical.

Protocol: Temperature: 40° C.; Mobile phases: 0.1% aqueous formic acid and acetonitrile; linear gradient from 10% acetonitrile to 90% acetonitrile.

`Cc1nnnn1C(=NOCc1csc(NC(=O)C2CC2)n1)c1ccc(-c2ccc(Cl)c(Cl)c2)o1` [Compound 84] gave a LogP of 3.83.
